The values below come from PMC9413440, “An Iterative Approach Guides Discovery of the FabI Inhibitor Fabimycin, a Late-Stage Antibiotic Candidate with In Vivo Efficacy against Drug-Resistant Gram-Negative Infections” (ACS Central Science, 2022).

The subject of experiment [1] is Bacteroides fragilis ATCC 25285. Briefly: MIC, commensal bacteria. The experiment is classed as cell-based. Particulars: ATCC25285. The procedure:
(§1) II. Materials and Methods for Biological Experiments
(§2) S. aureus ATCC 29213 and E. coli MG1655 were obtained from the American Type Culture Collection (ATCC). E. coli BW25113 and E. coli JW5503 were obtained from the Keio Collection. AR-bank strains were obtained from the Centers for Disease Control and Prevention and FDA Antibiotic Resistance Isolate Bank.
(§3) Antimicrobial susceptibility tests
(§4) Susceptibility testing was performed in biological triplicate, unless noted otherwise, using the micro-dilution broth method as outlined by the Clinical and Laboratory Standards Institute. Bacteria were cultured with cation-adjusted Mueller Hinton broth (Sigma Aldrich, catalogue number: 90922). […]
(§5) Error bars represent the standard error of the mean of three biological replicates. All compounds evaluated in biological assays were ≥95% pure.

The test system of experiment [2] is Streptococcus salivarius KLE 2370. Put plainly: MIC, commensal bacteria. The experiment is classed as cell-based. Particulars: KLE2370. On the procedure:
as §1, §2, §3, §4, §5

The subject of experiment [3] is Stenotrophomonas maltophilia ATCC 13637. Briefly: MIC, commensal bacteria. Particulars: ATCC13637. It counts as cell-based. The procedure: as §1, §2, §3, §4, §5
In a further experiment the test system is S. aureus USA300 LAC. Briefly: Neutropenic thigh infection model. It counts as in vivo, mouse. Particulars: neutropenic CD-1 mice, MRSA clinical isolate; 5 mg/kg retro-orbital IV 2 and 7 h postinfection; burden at 24 h. On the procedure: Neutropenic thigh infection model
Acclimated CD-1 mice (see above) were rendered neutropenic prior to the experiment via cyclophosphamide treatment. […]
For the gram-positive infection model S. aureus USA300LAC was established intramuscular injection at 2.3 * 10^6 CFU/mouse. Mice were treated with FabI inhibitors at 2 and 7 hours post-infection with burden being assessed at 24 hours post-infection. […]
The protocol to assess fabimycin’s efficacy in A. baumannii-infected mice (strain: AR-0088) was approved by the IACUC at Pharmacology Discovery Services, Taiwan, Ltd. (protocol number: IM003-01282019). In this study, neutropenic female BALB/c mice 7-8 weeks in age from BioLASCO Taiwan (AAALAC-certified Charles River Licensee) weighing 18 ± 2 grams were used. The mice were rendered neutropenic and inoculated in the same method as used for the pharmacokinetic study. […]
Animals were euthanized using compressed CO2 gas in a CO2 gas chamber. […] Bacterial burden in the tissue homogenates was determined by performing 10-fold serial dilutions and plating 0.1 mL of each to nutrient agar plates. Colonies were counted after 18 - 24 h incubation. The colony-forming unit value per tissue (CFU/thigh) was calculated. […]
IM011-12282020). […] Tissues were collected and pathogen burden evaluated by dilution plating technique on nutrient agar plates.

Structures are written as SMILES. ≈ marks a conversion by molar mass, not a printed value.

One may read the MIC as the lowest concentration found to suppress growth. Higher therefore signals weaker potency. With `Cc1c(CN(C)C(=O)/C=C/c2cnc3c(c2)CC[C@H](N)C(=O)N3)oc2ccccc12` [fabimycin], the MIC was > 128 µg/mL in experiment [1], > 128 µg/mL in experiment [2] and 128 µg/mL (≈ 316 µM) in experiment [3]. For the same molecule, in the experiment with S. aureus USA300 LAC, the “reduction of bacterial burden” value was “significantly greater reduction of bacterial burden relative to Debio-1452”.
